# Data reported in PMC5964033 (Journal of inorganic biochemistry, 2018).
# Values joined by “and” are separate entries in the source; they are usually repeats but may differ in a detail not shown here. Identical values can stand only once. “Also recorded” adds a separate entry of the source. Like-named read-outs stand apart in the source and are kept apart here.
# Legend:
# CYP2J2 [1] = biological target: T1, CYP2J2 (Homo sapiens, UniProt P51589); assay: Identification of pCB metabolites formed by CYP2J2; format: in vitro ADME; settings: major mono-oxygenated product(s) of CYP2J2 metabolism
# T1 sequence (P51589 1-502): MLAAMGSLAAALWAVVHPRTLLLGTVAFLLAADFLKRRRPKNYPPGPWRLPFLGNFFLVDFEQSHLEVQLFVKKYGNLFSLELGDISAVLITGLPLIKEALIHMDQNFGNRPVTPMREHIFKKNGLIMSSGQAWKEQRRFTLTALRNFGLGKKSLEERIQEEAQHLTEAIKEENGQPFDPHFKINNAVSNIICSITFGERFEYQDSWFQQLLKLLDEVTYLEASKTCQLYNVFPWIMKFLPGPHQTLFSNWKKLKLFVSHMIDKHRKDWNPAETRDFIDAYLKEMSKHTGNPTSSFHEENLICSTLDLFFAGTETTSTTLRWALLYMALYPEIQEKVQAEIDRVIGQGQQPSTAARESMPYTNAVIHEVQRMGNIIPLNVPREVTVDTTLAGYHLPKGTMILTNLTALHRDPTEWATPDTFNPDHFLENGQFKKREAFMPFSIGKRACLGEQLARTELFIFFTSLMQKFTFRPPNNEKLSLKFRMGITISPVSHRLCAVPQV
# CYP2J2 [2] = biological target: T1, CYP2J2; assay: biochemical
# CYP2J2 [3] = biological target: T1, CYP2J2; settings: formation of mono-oxygenated product; for Vmax: 5–60 µM pCB, 30 min, 37°C
# CYP2J2 [4] = biological target: T1, CYP2J2; assay: Inhibition of CYP2J2-mediated AEA metabolism by pCBs; format: biochemical; settings: for Type of AEA Metabolism Inhibition / Ki: 30 µM pCB; for Type of AEA Metabolism Inhibition: model of inhibition; for Ki: CYP2J2-ND/CPR; for apparent Vmax of AEA metabolism, % of the uninhibited enzyme: in the presence of 30 µM pCB
# CYP2J2 [5] = biological target: T1, CYP2J2; settings: at saturating concentrations, CYP2J2-NDs
# [6] = test system: fatty acid amide hydrolase (FAAH); settings: cited from earlier work
# Rhesus monkeys = settings: cited from earlier work
# other animal models = settings: cited from earlier work
# CYP2J2 [7] = biological target: T1, CYP2J2; settings: directly from Soret titration or through inhibition of ebastine binding
# humans = settings: cited from earlier work
# CYP2J2 [8] = biological target: T1, CYP2J2; format: in vitro ADME
# not read [9] = substrate: CCCCC/C=C\C/C=C\C/C=C\C/C=C\CCCC(=O)NCCO; assay: not read; format: in vitro ADME; settings: other: total EET-EAs formed, CYP2J2-ND/CPR; pH 7.4
# not read [10] = substrate: CCCCCc1cc(O)c(C/C=C(\C)CCC=C(C)C)c(O)c1; assay: not read; settings: other: formation of mono-oxygenated product; pH 7.4; 37.0 °C
# [11] = read-out: Ki, AEA Metabolism Inhibition
Molecule,Metabolite(s) (CYP2J2 [1]),Vmax (CYP2J2 [3]),Type of AEA Metabolism Inhibition (CYP2J2 [4]),"Ki (CYP2J2 [4]; Ki, AEA Metabolism Inhibition) [µM]",high-spin shift (CYP2J2 [5]),"apparent Vmax of AEA metabolism, % of the uninhibited enzyme (CYP2J2 [4])",further results
"CCCCCc1cc(O)c(C/C=C(\C)CCC=C(C)C)c(O)c1 [CBG, cannabigerol]",-1”-OH,123 ± 14 pmol · min^−1 · nmolCYP2J2^−1,competitively; also recorded: Competitive,10.8 ± 1.4,48%,,Kd (CYP2J2 [2]): 11.1 ± 1.2 µM
"C=C(C)[C@@H]1CCC(C)=C[C@H]1c1c(O)cc(CCCCC)cc1O [CBD, cannabidiol, reference compound]",-7-OH + -1”-OH,372 ± 100 pmol · min^−1 · nmolCYP2J2^−1,Noncompetitive,16.9 ± 1.1,32%,20–45%,Kd (CYP2J2 [2]): 11.5 ± 3 µM; inhibition of FAAH [6]: weakly inhibited
"CCCCCc1cc(O)c2c(c1)OC(C)(CCC=C(C)C)C=C2 (stereo not drawn) [CBC, cannabichromene]",-1”-OH,371 ± 134 pmol · min^−1 · nmolCYP2J2^−1,Noncompetitive,21.1 ± 1.4,did not produce a significant change in the high-spin content,20–45%,
CCCCC(O)c1cc(O)c2c(c1)OC(C)(C)C1CC=C(C)CC21 (stereo not drawn) [Δ8-THC-1’-OH],,,,,,,induction of behavioral changes associated with cannabis use (Rhesus monkeys): least effective
"CCCCCc1cc(O)c2c(c1)OC(C)(C)[C@@H]1CCC(C)=C[C@@H]21 [Δ9-THC, Δ9-tetrahydrocannabinol, reference compound]",-1’-OH,211 ± 28 pmol · min^−1 · nmolCYP2J2^−1,Noncompetitive,,did not produce a significant change in the high-spin content,20% and 20–45%,effect on heart rate in other animal models (other animal models): induces bradycardia; Km (CYP2J2 [3]): 11.9 ± 4.8 µM; Ki (CYP2J2 [4]; [11]): 9.86 ± 0.45 µM; binding affinity (CYP2J2 [7]): weakest; effect on heart rate in humans (humans): induces tachycardia
"CCCCC/C=C\C/C=C\C/C=C\C/C=C\CCCC(=O)NCCO [AEA, anandamide]",,,,,did not produce a significant change in the high-spin content,,"Metabolite(s) (CYP2J2 [8]; AEA metabolism by CYP2J2-NDs): EET-EAs; Vmax (CYP2J2 [8]; total EET-EAs formed, CYP2J2-ND/CPR): 135 ± 14.0 pmol · min^−1 · nmolCYP2J2^−1 and 135 ± 14 pmol · min^−1 · nmolCYP2J2^−1"
"CCCCCc1cc(O)c2c(c1)OC(C)(C)[C@@H]1CC=C(C)C[C@@H]21 [Δ8-THC, Δ8-tetrahydrocannabinol]",-1’-OH,80.9 ± 14.3 pmol · min^−1 · nmolCYP2J2^−1,Noncompetitive,,did not produce a significant change in the high-spin content,20–45%,Km (CYP2J2 [3]): 8.52 ± 5.3 µM; Ki (CYP2J2 [4]; [11]): 20.2 ± 1.9 µM
"CCCCCc1cc(O)c2c(c1)OC(C)(C)c1ccc(C)cc1-2 [CBN, cannabinol]",-1’-OH or -11-OH,,Noncompetitive,19.4 ± 2,38%,20–45%,
CYP2J2 (Homo sapiens) (protein) MLAAMGSLAAALWAVVHPRTLLLGTVAFLLAADFLKRRRPKNYPPGPWRLPFLGNFFLVDFEQSHLEVQLFVKKYGNLFSLELGDISAVLITGLPLIKEALIHMDQNFGNRPVTPMREHIFKKNGLIMSSGQAWKEQRRFTLTALRNFGLGKKSLEERIQEEAQHLTEAIKEENGQPFDPHFKINNAVSNIICSITFGERFEYQDSWFQQLLKLLDEVTYLEASKTCQLYNVFPWIMKFLPGPHQTLFSNWKKLKLFVSHMIDKHRKDWNPAETRDFIDAYLKEMSKHTGNPTSSFHEENLICSTLDLFFAGTETTSTTLRWALLYMALYPEIQEKVQAEIDRVIGQGQQPSTAARESMPYTNAVIHEVQRMGNIIPLNVPREVTVDTTLAGYHLPKGTMILTNLTALHRDPTEWATPDTFNPDHFLENGQFKKREAFMPFSIGKRACLGEQLARTELFIFFTSLMQKFTFRPPNNEKLSLKFRMGITISPVSHRLCAVPQV,,,,,,,Km (not read [9]): 30.9 ± 7.3 µM; Km (not read [10]): 8.27 ± 3.24 µM
